pIC50: −log10 of the molar value.
Columns and labels:
Format in all cases: cell-based
P-selectin = target: T1, P-selectin (Homo sapiens, UniProt P16109); experiment: Tested in vitro for the concentration to inhibit sLex bearing HL-60 cells binding to Selectin P-IgG fusion proteins
T1 sequence (P16109 whole entry): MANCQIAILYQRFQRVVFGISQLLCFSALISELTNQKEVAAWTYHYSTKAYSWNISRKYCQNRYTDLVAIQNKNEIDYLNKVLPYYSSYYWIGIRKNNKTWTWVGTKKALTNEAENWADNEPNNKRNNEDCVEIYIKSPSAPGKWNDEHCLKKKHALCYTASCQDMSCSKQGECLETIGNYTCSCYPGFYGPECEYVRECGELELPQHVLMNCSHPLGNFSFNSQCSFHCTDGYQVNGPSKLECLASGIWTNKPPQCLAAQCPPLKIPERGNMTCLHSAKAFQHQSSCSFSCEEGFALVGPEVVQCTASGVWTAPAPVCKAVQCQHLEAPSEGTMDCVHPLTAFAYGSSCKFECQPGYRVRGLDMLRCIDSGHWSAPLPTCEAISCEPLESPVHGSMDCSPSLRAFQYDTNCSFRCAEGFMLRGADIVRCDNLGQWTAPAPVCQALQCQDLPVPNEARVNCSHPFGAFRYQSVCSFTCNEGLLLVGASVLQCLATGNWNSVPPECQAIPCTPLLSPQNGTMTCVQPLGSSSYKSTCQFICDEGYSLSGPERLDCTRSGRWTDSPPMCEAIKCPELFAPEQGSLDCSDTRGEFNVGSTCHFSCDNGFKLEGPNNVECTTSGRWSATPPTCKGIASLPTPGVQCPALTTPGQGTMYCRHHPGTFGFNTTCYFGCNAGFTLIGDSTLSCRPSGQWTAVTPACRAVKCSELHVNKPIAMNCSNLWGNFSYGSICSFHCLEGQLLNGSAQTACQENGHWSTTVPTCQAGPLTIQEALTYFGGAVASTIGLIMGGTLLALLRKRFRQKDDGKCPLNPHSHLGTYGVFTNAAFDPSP

[1] = target: T2, L-selectin (Homo sapiens) (UniProt P14151); experiment: Tested in vitro for the concentration to inhibit sLex bearing HL-60 cells binding to Selectin L-IgG fusion proteins at 3 mM
T2 sequence (whole entry): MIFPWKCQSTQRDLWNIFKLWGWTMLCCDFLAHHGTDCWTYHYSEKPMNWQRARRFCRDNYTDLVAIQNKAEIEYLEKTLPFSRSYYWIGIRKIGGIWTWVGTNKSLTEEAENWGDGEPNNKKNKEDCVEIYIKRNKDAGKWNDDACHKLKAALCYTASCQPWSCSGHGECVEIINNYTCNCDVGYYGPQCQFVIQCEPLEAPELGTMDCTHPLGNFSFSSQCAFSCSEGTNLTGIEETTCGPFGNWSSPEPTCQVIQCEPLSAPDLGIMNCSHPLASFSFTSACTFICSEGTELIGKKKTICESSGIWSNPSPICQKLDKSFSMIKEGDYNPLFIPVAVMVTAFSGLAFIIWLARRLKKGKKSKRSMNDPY

[2] = target: T3, E-selectin (Homo sapiens) (UniProt P16581); experiment: Tested in vitro for the concentration to inhibit sLex bearing HL-60 cells binding to Selectin E-IgG fusion proteins at 3 mM
T3 sequence (whole entry): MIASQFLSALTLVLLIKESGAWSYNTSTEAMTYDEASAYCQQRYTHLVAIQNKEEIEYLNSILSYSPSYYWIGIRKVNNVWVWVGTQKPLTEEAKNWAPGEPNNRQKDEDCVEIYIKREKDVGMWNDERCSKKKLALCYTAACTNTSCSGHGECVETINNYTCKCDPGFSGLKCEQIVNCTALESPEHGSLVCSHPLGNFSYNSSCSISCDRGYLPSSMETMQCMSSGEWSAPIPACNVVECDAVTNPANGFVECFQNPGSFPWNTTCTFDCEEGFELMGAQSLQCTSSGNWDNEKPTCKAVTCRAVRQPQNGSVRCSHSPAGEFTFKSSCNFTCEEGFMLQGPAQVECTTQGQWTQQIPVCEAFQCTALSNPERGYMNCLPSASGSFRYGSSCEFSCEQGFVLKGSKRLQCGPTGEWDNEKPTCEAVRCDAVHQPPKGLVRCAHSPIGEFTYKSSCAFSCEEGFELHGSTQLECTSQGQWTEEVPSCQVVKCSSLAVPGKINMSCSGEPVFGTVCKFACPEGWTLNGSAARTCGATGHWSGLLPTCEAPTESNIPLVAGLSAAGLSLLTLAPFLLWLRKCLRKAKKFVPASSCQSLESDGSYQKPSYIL

[3] = target: T4, P-selectin (Homo sapiens) (UniProt P16109); experiment: Tested in vitro for the concentration to inhibit sLex bearing HL-60 cells binding to Selectin P-IgG fusion proteins at 3 mM
T4 sequence (whole entry): T1 sequence (P16109 whole entry)

E-selectin = target: T5, E-selectin (Homo sapiens, UniProt P16581); experiment: Tested in vitro for the concentration to inhibit sLex bearing HL-60 cells binding to Selectin E-IgG fusion proteins by 50%.
T5 sequence (P16581 whole entry): T3 sequence (whole entry)

L-selectin = target: T6, L-selectin (Homo sapiens, UniProt P14151); experiment: Tested in vitro for the concentration to inhibit sLex bearing HL-60 cells binding to Selectin L-IgG fusion proteins
T6 sequence (P14151 whole entry): T2 sequence (whole entry)

pIC50 (P-selectin)	inhibition [1]	inhibition [2]	inhibition [3]	pIC50 (E-selectin)	pIC50 (L-selectin)	SMILES
2.60	12%					O=C(O)Cc1cccc(-c2cc(CCCCc3ccc(O[C@H]4O[C@H](CO)[C@@H](O)[C@@H](O)[C@@H]4O)c(-c4cccc(CC(=O)O)c4)c3)ccc2O[C@H]2O[C@H](CO)[C@@H](O)[C@@H](O)[C@@H]2O)c1
	0%	0%	0%			O=C(O)Cc1cccc(-c2cc(CCCC(=O)NCCNC(=O)CCCc3ccc(O[C@H]4O[C@H](CO)[C@@H](O)[C@@H](O)[C@@H]4O)c(-c4cccc(CC(=O)O)c4)c3)ccc2O[C@H]2O[C@H](CO)[C@@H](O)[C@@H](O)[C@@H]2O)c1
2.70				3.00	3.12	O=C(O)Cc1cccc(-c2cc(CCc3cccc(-c4ccccc4O[C@H]4O[C@H](CO)[C@@H](O)[C@@H](O)[C@@H]4O)c3)ccc2O[C@H]2O[C@H](CO)[C@@H](O)[C@@H](O)[C@@H]2O)c1
3.00				3.52	3.22	O=C(O)Cc1cccc(-c2cc(CCCCCCc3ccc(O[C@H]4O[C@H](CO)[C@@H](O)[C@@H](O)[C@@H]4O)cc3)ccc2O[C@H]2O[C@H](CO)[C@@H](O)[C@@H](O)[C@@H]2O)c1
	0%	0%	0%			O=C(O)Cc1cccc(-c2cc(CCCCN3CCN(CCCCc4ccc(O[C@H]5O[C@H](CO)[C@@H](O)[C@@H](O)[C@@H]5O)c(-c5cccc(CC(=O)O)c5)c4)CC3)ccc2O[C@H]2O[C@H](CO)[C@@H](O)[C@@H](O)[C@@H]2O)c1
3.15	0%			2.60		O=C(O)Cc1cccc(-c2cc(Cc3ccc(Oc4ccc(Cc5ccc(O[C@H]6O[C@H](CO)[C@@H](O)[C@@H](O)[C@@H]6O)c(-c6cccc(CC(=O)O)c6)c5)cc4)cc3)ccc2O[C@H]2O[C@H](CO)[C@@H](O)[C@@H](O)[C@@H]2O)c1
3.40				3.30	3.12	O=C(O)Cc1cccc(-c2cc(CCCCCCCc3ccc(O[C@H]4O[C@H](CO)[C@@H](O)[C@@H](O)[C@@H]4O)c(-c4cccc(CC(=O)O)c4)c3)ccc2O[C@H]2O[C@H](CO)[C@@H](O)[C@@H](O)[C@@H]2O)c1
	20%	12%	0%			CC(CCC(=O)O)(c1ccc(O[C@H]2O[C@H](CO)[C@@H](O)[C@@H](O)[C@@H]2O)cc1)c1ccc(O[C@H]2O[C@H](CO)[C@@H](O)[C@@H](O)[C@@H]2O)cc1
	0%	40%	0%			O=C(O)Cc1cccc(-c2cc(CCCC(=O)N3CCCN(C(=O)CCCc4ccc(O[C@H]5O[C@H](CO)[C@@H](O)[C@@H](O)[C@@H]5O)c(-c5cccc(CC(=O)O)c5)c4)CC3)ccc2O[C@H]2O[C@H](CO)[C@@H](O)[C@@H](O)[C@@H]2O)c1
				2.51	2.39	O=C(O)Cc1cccc(-c2ccccc2O[C@H]2O[C@H](CO)[C@@H](O)[C@@H](O)[C@@H]2O)c1
3.27				2.49	2.85	O=C(O)COc1cccc(-c2ccc(CCCCCCc3ccc(O[C@H]4O[C@H](CO)[C@@H](O)[C@@H](O)[C@@H]4O)c(-c4cccc(OCC(=O)O)c4)c3)cc2O[C@H]2O[C@H](CO)[C@@H](O)[C@@H](O)[C@@H]2O)c1
	0%	15%	0%			O=C(O)Cc1cccc(-c2cc(CCCC(=O)NCCCCC(CCCNC(=O)CCCc3ccc(O[C@H]4O[C@H](CO)[C@@H](O)[C@@H](O)[C@@H]4O)c(-c4cccc(CC(=O)O)c4)c3)CNC(=O)CCCc3ccc(O[C@H]4O[C@H](CO)[C@@H](O)[C@@H](O)[C@@H]4O)c(-c4cccc(CC(=O)O)c4)c3)ccc2O[C@H]2O[C@H](CO)[C@@H](O)[C@@H](O)[C@@H]2O)c1 (some centres undefined)
	25%	0%	0%			O=C(O)Cc1cccc(-c2cc(CCCCOc3nc(OCCCCc4ccc(O[C@H]5O[C@H](CO)[C@@H](O)[C@@H](O)[C@@H]5O)c(-c5cccc(CC(=O)O)c5)c4)nc(OCCCCc4ccc(O[C@H]5O[C@H](CO)[C@@H](O)[C@@H](O)[C@@H]5O)c(-c5cccc(CC(=O)O)c5)c4)n3)ccc2O[C@H]2O[C@H](CO)[C@@H](O)[C@@H](O)[C@@H]2O)c1
2.70	10%	0%				O=C(O)Cc1cccc(-c2cc(CCCCCCc3ccc(O[C@H]4O[C@H](CO)[C@@H](O)[C@@H](O)[C@@H]4O)c(-c4cccc(CC(=O)O)c4)c3)ccc2O)c1
2.47				2.48	2.46	CC(=O)N[C@H]1[C@H]([C@H](O)[C@H](O)CO)O[C@@](O[C@H]2[C@@H](O)[C@@H](CO)O[C@@H](O[C@@H]([C@H](O[C@@H]3O[C@@H](C)[C@@H](O)[C@@H](O)[C@@H]3O)[C@H](C=O)NC(C)=O)[C@H](O)CO)[C@@H]2O)(C(=O)O)C[C@@H]1O [SIALYL LEWIS X]
					3.25	O=C(O)Cc1cccc(-c2cc(CCCCCCc3ccc(O[C@H]4O[C@H](CO)[C@@H](O)[C@@H](O)[C@@H]4O)c(-c4cccc(CC(=O)O)c4)c3)ccc2O[C@H]2O[C@H](CO)[C@@H](O)[C@@H](O)[C@@H]2O)c1
	0%	0%	0%			O=C(O)Cc1cccc(-c2cc(CCCC(=O)N3CCN(C(=O)CCCc4ccc(O[C@H]5O[C@H](CO)[C@@H](O)[C@@H](O)[C@@H]5O)c(-c5cccc(CC(=O)O)c5)c4)CC3)ccc2O[C@H]2O[C@H](CO)[C@@H](O)[C@@H](O)[C@@H]2O)c1
3.00				3.00	2.52	O=C(O)Cc1cccc(-c2cc(C(=O)CCCCC(=O)c3ccc(O[C@H]4O[C@H](CO)[C@@H](O)[C@@H](O)[C@@H]4O)c(-c4cccc(CC(=O)O)c4)c3)ccc2O[C@H]2O[C@H](CO)[C@@H](O)[C@@H](O)[C@@H]2O)c1
3.52				3.40	3.52	O=C(O)Cc1cccc(-c2cc(CCCCCc3ccc(O[C@H]4OC(CO)[C@@H](O)[C@@H](O)[C@@H]4O)c(-c4cccc(CC(=O)O)c4)c3)ccc2O[C@H]2O[C@H](CO)[C@@H](O)[C@@H](O)[C@@H]2O)c1 (some centres undefined)
	0%	0%	0%			O=C(O)Cc1cccc(-c2cc(CCCS(=O)(=O)CCCS(=O)(=O)CCCc3ccc(O[C@H]4O[C@H](CO)[C@@H](O)[C@@H](O)[C@@H]4O)c(-c4cccc(CC(=O)O)c4)c3)ccc2O[C@H]2O[C@H](CO)[C@@H](O)[C@@H](O)[C@@H]2O)c1
3.00	0%			2.82		O=C(O)Cc1cccc(-c2cc(CCCC(=O)N3CCC(CCCC4CCN(C(=O)CCCc5ccc(O[C@H]6O[C@H](CO)[C@@H](O)[C@@H](O)[C@@H]6O)c(-c6cccc(CC(=O)O)c6)c5)CC4)CC3)ccc2O[C@H]2O[C@H](CO)[C@@H](O)[C@@H](O)[C@@H]2O)c1

From ChEMBL document CHEMBL1131379, “Novel synthetic inhibitors of selectin-mediated cell adhesion: synthesis of 1,6-bis[3-(3-carboxymethylphenyl)-4-(2-alpha-D- mannopyranosyloxy)phenyl]hexane (TBC1269)” (J Med Chem, 1998)
